In ChEMBL document CHEMBL5331103, “Discovery of novel 2-hydroxyl-4-benzyloxybenzyl aniline derivatives as potential multifunctional agents for the treatment of Parkinson's disease” (Eur J Med Chem, 2023):
Active and inactive are the calls of the source. No cut-off for these calls is given here.

Columns and labels:
Mus musculus [1] = assay: Anti-parkinson's disease activity in MPTP-induced C57BL/6C mouse model assessed as reduction in total time required to reach the bottom of pole at 53.5 mg/kg, IG preadministered with MPTP for 5 days followed by compound administration for 3 weeks and measured 1 hrs post last dose by pole test; type: functional, organism-based
Mus musculus [2] = assay: Anti-parkinson's disease activity in MPTP-induced C57BL/6C mouse model assessed as reduction in time required to turn the head to 180 degree at 53.5 mg/kg, IG preadministered with MPTP for 5 days followed by compound administration for 3 weeks and measured 1 hrs post last dose by pole test; type: functional, organism-based
[3] = Metal chelating activity assessed as Fe3+-compound complex formation by measuring increase in absorbance incubated for 2 hrs in the presence of FeCl3 by UV-Vis spectra analysis
[4] = biological target: T1, Amine oxidase [flavin-containing] B (Homo sapiens, UniProt P27338); assay: Competitive inhibition of MAO-B (unknown origin) using kynuramine as substrate assessed as […] at 0.007 to 0.028 uM by Lineweaver-Burk plot analysis; details: dose 0.007-0.028 µM
T1 sequence (P27338 whole entry): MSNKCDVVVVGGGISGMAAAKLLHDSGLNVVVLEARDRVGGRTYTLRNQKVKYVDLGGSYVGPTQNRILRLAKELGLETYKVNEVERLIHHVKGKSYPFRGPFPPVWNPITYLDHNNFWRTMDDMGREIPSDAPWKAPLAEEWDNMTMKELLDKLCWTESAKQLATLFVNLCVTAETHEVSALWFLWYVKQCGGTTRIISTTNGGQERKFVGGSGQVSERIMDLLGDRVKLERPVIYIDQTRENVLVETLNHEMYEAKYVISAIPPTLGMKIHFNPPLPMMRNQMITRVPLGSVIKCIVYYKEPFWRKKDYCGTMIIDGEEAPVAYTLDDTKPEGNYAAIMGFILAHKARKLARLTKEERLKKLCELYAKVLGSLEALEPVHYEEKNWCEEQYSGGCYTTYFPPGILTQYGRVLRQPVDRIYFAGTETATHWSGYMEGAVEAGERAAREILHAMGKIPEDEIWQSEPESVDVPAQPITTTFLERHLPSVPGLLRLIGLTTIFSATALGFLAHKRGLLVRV

[5] = biological target: T1, Amine oxidase [flavin-containing] B
Description: Inhibition of MAO-B (unknown origin) using kynuramine as substrate preincubated for 30 mins followed by substrate addition and measured after 30 mins by fluorescence based analysis

BV-2 [6] = assay: Anti-neuroinflammatory activity in mouse BV-2 cells assessed as inhibition of LPS-induced NO production at 2.5 uM preincubated for 30 mins followed by LPS stimulation and measured after 24 hrs by Griess reagent based assay relative to control; type: functional; details: time 24.5 hrs
[7] = Metal chelating activity assessed as Al3+-compound complex formation by measuring increase in absorbance incubated for 2 hrs in the presence of AlCl3 by UV-Vis spectra analysis
PC-12 [8] = assay: Cytotoxicity against rat PC-12 cells assessed as reduction in cell viability upto 50 uM incubated for 2 hrs by MTT assay; type: toxicity, cell-based; details: pc-12, 2 h
BV-2 [9] = assay: Inhibition of LPS-induced NFkappaB activation in mouse BV-2 cells assessed as inhibition of p65 translocation to nucleus at 1 to 10 uM preincubated for 30 mins followed by LPS-stimulation and measured after 16 hrs by Western blot analysis; type: cell-based; details: dose 1-10 µM, time 16.5 hrs
BV-2 [10] = assay: Inhibition of LPS-induced ROS production in mouse BV-2 cells at 10 uM preincubated for 30 mins followed by LPS-stimulation and measured after 30 mins by DCFH-DA based fluorescence microplate reader analysis relative to control; type: functional; details: BV-2, 1 h, time 60 min
[11] = Permeability of the compound in porcine brain incubated for 18 hrs by PAMPA-BBB assay; type: ADME, Sus scrofa; details: pig, read-out: permeability
PC-12 [12] = assay: Neuroprotective activity against H2O2-induced cell damage in rat PC-12 cells assessed as increase in cell viability at 10 uM preincubated for 2 hrs followed by H2O2 addition and measured after 24 hrs by MTT assay (reference value: 50.3%); type: functional; details: time 26 hrs
[13] = biological target: T1, Amine oxidase [flavin-containing] B; assay: Competitive inhibition of MAO-B (unknown origin) using kynuramine as substrate assessed as inhibition constant by Lineweaver-Burk plot analysis
Mus musculus [14] = assay: Anti-parkinson's disease activity in MPTP-induced C57BL/6C mouse model assessed as reduction in beam walking test time at 53.5 mg/kg, IG preadministered with MPTP for 5 days followed by compound administration for 3 weeks and measured 1 hrs post last dose by beam-walking test; type: functional, organism-based
BV-2 [15] = assay: Anti-neuroinflammatory activity in mouse BV-2 cells assessed as inhibition of LPS-induced NO production at 0.5 uM preincubated for 30 mins followed by LPS stimulation and measured after 24 hrs by Griess reagent based assay relative to control; type: functional; details: time 24.5 hrs
PC-12 [16] = assay: Neuroprotective activity against H2O2-induced cell damage in rat PC-12 cells assessed as increase in cell viability at 2.5 uM preincubated for 2 hrs followed by H2O2 addition and measured after 24 hrs by MTT assay (reference value: 50.3%); type: functional; details: time 26 hrs
BV-2 [17] = assay: Cytotoxicity against mouse BV-2 cells assessed as reduction in cell viability upto 10 uM incubated for 30 mins by MTT assay; type: toxicity, cell-based; details: bv-2, 0.5 h
BV-2 [18] = assay: Anti-neuroinflammatory activity in mouse BV-2 cells assessed as inhibition of LPS-induced NO production at 10 uM preincubated for 30 mins followed by LPS stimulation and measured after 24 hrs by Griess reagent based assay relative to control; type: functional; details: time 24.5 hrs
Mus musculus [19] = assay: In vivo inhibition of MAO-B in MPTP-induced C57BL/6C parkinson's mouse model assessed as increase in DA level in corpus striatum at 53.5 mg/kg, IG preadministered with MPTP for 5 days followed by compound administration for 3 weeks and measured 1 hrs post last dose by HPLC-ECD method; type: functional, organism-based
BV-2 [20] = assay: Anti-neuroinflammatory activity in mouse BV-2 cells assessed as inhibition of LPS-induced TNF-alpha production preincubated for 30 mins followed by LPS stimulation and measured after 24 hrs by ELISA analysis; type: functional, cell-based; details: dose 0.5-10 µM, time 24.5 hrs
[21] = Metal chelating activity assessed as Fe2+-compound complex formation by measuring red shift incubated for 2 hrs in the presence of FeSO4 by UV-Vis spectra analysis
BV-2 [22] = assay: Inhibition of LPS-induced NFkappaB activation in mouse BV-2 cells assessed as reduction in IkappaBalpha phosphorylation at 1 to 10 uM preincubated for 30 mins followed by LPS-stimulation and measured after 16 hrs by Western blot analysis; type: cell-based; details: dose 1-10 µM, time 16.5 hrs
[23] = Metal chelating activity assessed as Cu2+-compound complex formation by measuring increase in absorbance incubated for 2 hrs in the presence of CuCl2 by UV-Vis spectra analysis
[24] = Metal chelating activity assessed as Fe2+-compound complex formation by measuring increase in absorbance incubated for 2 hrs in the presence of FeSO4 at 30 to 900 uM by UV-Vis spectra analysis
[25] = Metal chelating activity assessed as Zn2+-compound complex formation by measuring increase in absorbance incubated for 2 hrs in the presence of ZnCl2 by UV-Vis spectra analysis
BV-2 [26] = assay: Anti-neuroinflammatory activity in mouse BV-2 cells assessed as inhibition of LPS-induced TNF-alpha production at 10 uM preincubated for 30 mins followed by LPS stimulation and measured after 24 hrs by ELISA analysis relative to control; type: functional; details: time 24.5 hrs

Oc1cc(OCc2ccc(F)cc2)ccc1CNc1ccccc1
Activity (Mus musculus [1]): Active | Activity (Mus musculus [2]): Active | Activity [3]: Active | inhibition (INH) [4]: Active | IC50 [5]: 0.014 µM | inhibition at 2.5 µM (BV-2 [6]): 28% | Activity [7]: Active | Activity (PC-12 [8]): Non-Toxic | inhibition (BV-2 [9]): Active | inhibition at 10 µM (BV-2 [10]): 99% | Papp at 18 h [11]: 8.62 ×10⁻⁶ cm/s | Activity (PC-12 [12]): 69.6% | Ki [13]: 0.018 µM | Activity (Mus musculus [14]): Active | inhibition at 0.5 µM (BV-2 [15]): 13.5% | Activity (PC-12 [16]): 59.8% | Activity (BV-2 [17]): Non-Toxic | inhibition at 10 µM (BV-2 [18]): 76.1% | inhibition (Mus musculus [19]): Active | Activity (BV-2 [20]): Dose-Dependent Effect | Activity [21]: Active | inhibition (BV-2 [22]): Active | Activity [23]: Active | Activity [24]: Active | Activity [25]: Active | inhibition at 10 µM (BV-2 [26]): 63.9%
